In paper PMC12073402, “A Selective MAP3K1 Inhibitor Facilitates Discovery of NPM1 as a Member of the Network” (Molecules, 2025):

Legend:
Assay in all cases: KiNativ kinome profiling in PANC-1 lysate
Assay type in all cases: binding
AurA, AurB, AurC = details: 5 µM; ATP Loop; GKFGNVYLAR
From the text: (§1) To assess target engagement and selectivity, we opted to conduct a kinome screen (KiNativ) in PANC-1 cell lysates. This chemical proteomics (chemoproteomics) methodology allows for the evaluation of small-molecule binding to protein kinases in native systems such as cell lysates. KiNativ utilizes a soluble chemical probe comprising ATP linked to biotin through an acyl-phosphate bond. The probe covalently modifies conserved lysine residues found in the ATP binding site of essentially all protein kinases (Figure 2A). To profile a kinase inhibitor, cell lysates are treated with a vehicle control or inhibitor prior to addition of the desthiobiotin ATP probe. The ATP probe occupies the ATP binding site in the kinase, which enables the conserved lysines to be biotinylated. […] The cell lysates are digested with a protease (trypsin), biotinylated peptides are affinity-enriched on streptavidin beads, and the labeled peptides are analyzed by liquid chromatography–tandem MS (Figure 2B). If an inhibitor binds to a kinase, it competes with the ATP, thus resulting in a loss of that kinase-associated peptide signal, allowing for the quantitative measurement of inhibitor binding. Unlike recombinant enzyme assays, KiNativ IC50 values are a direct measure of active site binding instead of enzymatic activity.
(§2) Kinome profiling quantified the activity of 51-106 against >300 kinases in the PANC-1 cells. The results summarized in Figure 2C are the average of duplicate control and duplicate treated samples with 5 μM of 51-106 or DMSO.
(§3) KiNativ assay with 51-106.
(§4) ATP Loop: ATP binding loop
(§5) Activation Loop: Activation loop
(§6) ATP: ATP site in non-canonical kinase (e.g. lipid kinase)
(§7) Protein Kinase Domain: Other lysine within kinase domain, possibly not in ATP binding site
(§8) Other: Labeling of residue outside of the protein kinase domain, possibly not in ATP binding site
(§9) No change. NB = No Binding (≤ 0)
(§10) >100% increase in MS signal (>2 fold increase)
(§11) Data points inhibited […] & not considered significant are left uncolored
(§12) Note: This KiNativ dataset is the result of an analysis of duplicate treated samples and control samples.
(§13) The % changes in MS signals being reported are statistically significant (Student T -test score < 0.04)

MSK2 domain1 = target: T1, MSK2 domain1 (Homo sapiens, UniProt O75676)
T1 construct: endogenous in cells; host or cells: PANC-1
T1 sequence (O75676 whole entry, the tested form may be a part): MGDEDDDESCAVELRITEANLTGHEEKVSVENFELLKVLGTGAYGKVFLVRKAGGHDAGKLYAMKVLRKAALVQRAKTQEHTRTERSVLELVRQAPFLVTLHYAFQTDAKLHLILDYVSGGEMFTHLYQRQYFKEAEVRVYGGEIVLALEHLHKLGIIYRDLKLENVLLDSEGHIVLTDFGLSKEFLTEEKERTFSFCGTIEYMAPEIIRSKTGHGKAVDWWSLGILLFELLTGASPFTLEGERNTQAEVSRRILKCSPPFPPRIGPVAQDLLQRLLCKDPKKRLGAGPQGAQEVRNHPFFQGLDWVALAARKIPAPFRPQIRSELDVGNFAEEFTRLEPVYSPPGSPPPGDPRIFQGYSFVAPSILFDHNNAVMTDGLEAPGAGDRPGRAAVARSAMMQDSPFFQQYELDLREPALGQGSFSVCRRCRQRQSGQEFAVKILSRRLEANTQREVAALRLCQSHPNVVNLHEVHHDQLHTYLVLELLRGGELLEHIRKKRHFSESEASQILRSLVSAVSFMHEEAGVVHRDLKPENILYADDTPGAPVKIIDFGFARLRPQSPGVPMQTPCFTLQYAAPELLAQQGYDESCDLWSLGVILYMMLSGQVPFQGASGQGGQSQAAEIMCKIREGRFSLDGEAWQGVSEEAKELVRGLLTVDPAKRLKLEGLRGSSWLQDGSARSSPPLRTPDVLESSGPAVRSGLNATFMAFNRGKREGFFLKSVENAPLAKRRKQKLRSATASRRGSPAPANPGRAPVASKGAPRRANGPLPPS
From the text: as §1, §2, §3, §4, §5, §6, §7, §8, §9, §10, §11, §12, §13

MAST4 = target: T2, MAST4 (Homo sapiens, UniProt O15021); details: Lys2
T2 construct: endogenous in cells; host or cells: PANC-1
From the text: as §1, §2, §3, §4, §5, §6, §7, §8, §9, §10, §11, §12, §13

ITPK1 = target: T3, ITPK1 (Homo sapiens, UniProt Q13572); details: ATP Loop
T3 construct: we opted to conduct a kinome screen (KiNativ) in PANC-1 cell lysates; endogenous in cells; host or cells: PANC-1 cell lysate
T3 sequence (Q13572 whole entry): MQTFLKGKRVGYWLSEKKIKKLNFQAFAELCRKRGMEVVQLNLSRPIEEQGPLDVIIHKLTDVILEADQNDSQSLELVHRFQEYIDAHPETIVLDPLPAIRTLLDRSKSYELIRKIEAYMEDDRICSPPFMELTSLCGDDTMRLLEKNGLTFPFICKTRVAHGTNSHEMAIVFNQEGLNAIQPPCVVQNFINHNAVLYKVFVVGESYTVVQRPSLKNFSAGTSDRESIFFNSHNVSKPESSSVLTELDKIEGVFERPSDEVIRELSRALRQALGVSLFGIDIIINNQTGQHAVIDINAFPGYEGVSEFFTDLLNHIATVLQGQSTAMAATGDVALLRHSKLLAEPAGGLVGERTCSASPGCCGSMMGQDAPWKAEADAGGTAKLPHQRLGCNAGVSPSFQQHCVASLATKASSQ
From the text: as §1, §2, §3, §4, §5, §6, §7, §8, §9, §10, §11, §12, §13

PKD3 = target: T4, PKD3 (Homo sapiens, UniProt O94806)
T4 construct: endogenous in cells; host or cells: PANC-1 cell lysate
T4 sequence (O94806 1-890): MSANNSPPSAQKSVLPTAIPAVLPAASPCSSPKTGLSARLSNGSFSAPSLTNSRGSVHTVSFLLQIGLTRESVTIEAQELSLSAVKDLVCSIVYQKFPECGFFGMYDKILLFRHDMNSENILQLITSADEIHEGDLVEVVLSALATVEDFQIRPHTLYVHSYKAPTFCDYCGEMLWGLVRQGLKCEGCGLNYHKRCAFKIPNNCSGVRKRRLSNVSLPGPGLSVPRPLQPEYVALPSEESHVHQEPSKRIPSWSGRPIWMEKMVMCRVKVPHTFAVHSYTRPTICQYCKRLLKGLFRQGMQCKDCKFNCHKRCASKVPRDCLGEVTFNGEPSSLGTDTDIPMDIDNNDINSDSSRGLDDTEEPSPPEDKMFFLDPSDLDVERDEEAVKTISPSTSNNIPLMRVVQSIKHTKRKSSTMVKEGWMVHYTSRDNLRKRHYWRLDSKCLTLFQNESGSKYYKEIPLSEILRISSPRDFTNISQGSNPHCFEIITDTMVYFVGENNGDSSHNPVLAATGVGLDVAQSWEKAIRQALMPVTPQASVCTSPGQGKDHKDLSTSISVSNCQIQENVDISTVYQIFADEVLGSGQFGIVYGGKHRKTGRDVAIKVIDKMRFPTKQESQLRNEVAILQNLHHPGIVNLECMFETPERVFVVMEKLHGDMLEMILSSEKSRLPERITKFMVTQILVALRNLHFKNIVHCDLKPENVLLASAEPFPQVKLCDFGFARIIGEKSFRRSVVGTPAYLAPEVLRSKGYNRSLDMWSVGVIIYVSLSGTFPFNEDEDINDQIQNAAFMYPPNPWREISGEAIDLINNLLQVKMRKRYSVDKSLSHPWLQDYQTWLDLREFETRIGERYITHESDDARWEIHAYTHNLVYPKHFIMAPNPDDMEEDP
From the text: as §1, §2, §3, §4, §5, §6, §7, §8, §9, §10, §11, §12, §13

PKD1 = target: T5, PKD1 (Homo sapiens, UniProt Q15139); details: Lys1
T5 construct: endogenous in cells; host or cells: PANC-1 cell lysate
From the text: as §1, §2, §3, §4, §5, §6, §7, §8, §9, §10, §11, §12, §13

[1] = tested on: CaMK2a, CaMK2b, CaMK2d, CaMK2g; details: 5 µM; Lys2; DLKPENLLLASK
From the text: as §1, §2, §3, §4, §5, §6, §7, §8, §9, §10, §11, §12, §13

DLK = target: T6, DLK (Homo sapiens, UniProt Q12852); details: Lys2
T6 construct: endogenous in cells; host or cells: PANC-1 lysate
T6 sequence (Q12852 whole entry): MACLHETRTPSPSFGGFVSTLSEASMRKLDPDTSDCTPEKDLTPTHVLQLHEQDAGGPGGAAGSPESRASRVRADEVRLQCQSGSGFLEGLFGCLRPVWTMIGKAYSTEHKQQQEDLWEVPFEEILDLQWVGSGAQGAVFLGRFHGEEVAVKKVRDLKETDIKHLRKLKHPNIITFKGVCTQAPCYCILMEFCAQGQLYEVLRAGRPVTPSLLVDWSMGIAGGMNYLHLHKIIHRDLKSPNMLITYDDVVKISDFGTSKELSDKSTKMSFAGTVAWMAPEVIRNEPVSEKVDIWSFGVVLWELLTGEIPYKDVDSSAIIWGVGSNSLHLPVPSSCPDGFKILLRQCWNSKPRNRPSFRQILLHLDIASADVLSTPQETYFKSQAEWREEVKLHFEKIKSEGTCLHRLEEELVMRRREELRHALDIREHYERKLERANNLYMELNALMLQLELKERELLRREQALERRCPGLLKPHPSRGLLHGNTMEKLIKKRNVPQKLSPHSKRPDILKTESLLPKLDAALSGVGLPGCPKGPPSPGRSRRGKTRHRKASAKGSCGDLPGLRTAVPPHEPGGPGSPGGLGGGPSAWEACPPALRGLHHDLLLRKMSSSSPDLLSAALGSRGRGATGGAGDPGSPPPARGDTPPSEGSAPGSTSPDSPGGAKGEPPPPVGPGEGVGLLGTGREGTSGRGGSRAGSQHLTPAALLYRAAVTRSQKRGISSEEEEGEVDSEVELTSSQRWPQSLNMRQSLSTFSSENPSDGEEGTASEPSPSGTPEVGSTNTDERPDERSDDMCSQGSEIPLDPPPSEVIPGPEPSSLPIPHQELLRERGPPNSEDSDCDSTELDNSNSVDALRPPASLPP
From the text: as §1, §2, §3, §4, §5, §6, §7, §8, §9, §10, §11, §12, §13

MAP4K3 = target: T7, MAP4K3 (Homo sapiens, UniProt Q8IVH8)
T7 construct: endogenous in cells; host or cells: PANC-1 cell lysate
T7 sequence (Q8IVH8 whole entry): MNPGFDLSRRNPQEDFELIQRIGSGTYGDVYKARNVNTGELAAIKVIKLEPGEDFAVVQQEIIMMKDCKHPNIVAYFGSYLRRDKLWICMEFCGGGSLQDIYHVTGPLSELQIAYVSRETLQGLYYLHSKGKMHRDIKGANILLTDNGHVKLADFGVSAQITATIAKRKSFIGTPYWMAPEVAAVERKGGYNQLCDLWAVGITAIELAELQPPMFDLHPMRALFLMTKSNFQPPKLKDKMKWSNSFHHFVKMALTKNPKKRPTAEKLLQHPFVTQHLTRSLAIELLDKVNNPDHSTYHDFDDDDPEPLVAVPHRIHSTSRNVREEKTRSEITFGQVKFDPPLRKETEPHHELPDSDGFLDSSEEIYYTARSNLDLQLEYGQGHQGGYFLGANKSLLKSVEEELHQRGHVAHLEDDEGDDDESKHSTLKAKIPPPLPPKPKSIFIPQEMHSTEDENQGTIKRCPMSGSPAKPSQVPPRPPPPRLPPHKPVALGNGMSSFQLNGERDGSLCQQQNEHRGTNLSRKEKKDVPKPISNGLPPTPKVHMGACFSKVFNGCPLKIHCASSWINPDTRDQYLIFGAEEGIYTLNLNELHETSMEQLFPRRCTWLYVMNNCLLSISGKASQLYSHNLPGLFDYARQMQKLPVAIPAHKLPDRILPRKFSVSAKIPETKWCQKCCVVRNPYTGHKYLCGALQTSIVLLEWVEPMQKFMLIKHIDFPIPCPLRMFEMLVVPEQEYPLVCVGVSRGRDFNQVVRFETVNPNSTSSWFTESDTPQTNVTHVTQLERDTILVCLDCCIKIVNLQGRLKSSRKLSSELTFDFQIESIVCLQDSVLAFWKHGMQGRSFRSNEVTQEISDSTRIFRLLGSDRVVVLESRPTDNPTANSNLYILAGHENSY
From the text: as §1, §2, §3, §4, §5, §6, §7, §8, §9, §10, §11, §12, §13

PIP4K2C = target: T8, PIP4K2C (Homo sapiens, UniProt Q8TBX8); details: ATP
T8 construct: endogenous in cells; host or cells: PANC-1 cell lysate
T8 sequence (Q8TBX8 whole entry): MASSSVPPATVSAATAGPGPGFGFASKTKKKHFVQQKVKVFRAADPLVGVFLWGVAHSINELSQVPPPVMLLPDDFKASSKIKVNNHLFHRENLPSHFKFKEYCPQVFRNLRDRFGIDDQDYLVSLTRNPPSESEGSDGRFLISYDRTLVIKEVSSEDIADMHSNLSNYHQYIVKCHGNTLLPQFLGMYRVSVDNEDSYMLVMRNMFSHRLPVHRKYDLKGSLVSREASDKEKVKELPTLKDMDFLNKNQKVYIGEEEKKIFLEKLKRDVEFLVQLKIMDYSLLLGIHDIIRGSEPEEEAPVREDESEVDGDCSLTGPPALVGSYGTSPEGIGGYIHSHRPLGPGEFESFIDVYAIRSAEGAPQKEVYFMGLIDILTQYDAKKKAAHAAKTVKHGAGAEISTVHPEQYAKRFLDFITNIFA
From the text: as §1, §2, §3, §4, §5, §6, §7, §8, §9, §10, §11, §12, §13

CDK11 = target: T9, CDK11 (Homo sapiens, UniProt Q9BWU1); details: Lys1
T9 construct: endogenous in cells; host or cells: PANC-1 cell lysate
T9 sequence (Q9BWU1 whole entry): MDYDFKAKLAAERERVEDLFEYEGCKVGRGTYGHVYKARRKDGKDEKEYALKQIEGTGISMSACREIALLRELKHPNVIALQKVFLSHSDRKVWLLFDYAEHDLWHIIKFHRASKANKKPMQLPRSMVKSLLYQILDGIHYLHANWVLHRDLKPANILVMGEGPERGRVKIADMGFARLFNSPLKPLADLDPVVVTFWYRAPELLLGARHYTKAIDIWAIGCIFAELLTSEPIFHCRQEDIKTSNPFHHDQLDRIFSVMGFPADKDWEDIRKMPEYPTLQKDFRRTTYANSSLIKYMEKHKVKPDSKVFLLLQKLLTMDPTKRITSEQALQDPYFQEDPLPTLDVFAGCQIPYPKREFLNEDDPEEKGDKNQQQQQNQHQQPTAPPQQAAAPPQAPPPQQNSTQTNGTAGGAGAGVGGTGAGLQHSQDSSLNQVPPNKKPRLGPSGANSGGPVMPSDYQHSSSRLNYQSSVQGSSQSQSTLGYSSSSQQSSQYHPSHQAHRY
From the text: as §1, §2, §3, §4, §5, §6, §7, §8, §9, §10, §11, §12, §13

CK1g1, CK1g2, CK1g3 = details: 5 µM; ATP Loop; KIGCGNFGELR
From the text: as §1, §2, §3, §4, §5, §6, §7, §8, §9, §10, §11, §12, §13

MST3, MST4, YSK1 = details: 5 µM; ATP Loop; LADFGVAGQLTDTQIKR
From the text: as §1, §2, §3, §4, §5, §6, §7, §8, §9, §10, §11, §12, §13

AurA = target: T10, AurA (Homo sapiens, UniProt O14965)
T10 construct: endogenous in cells; host or cells: PANC-1 cell lysate
T10 sequence (O14965 whole entry): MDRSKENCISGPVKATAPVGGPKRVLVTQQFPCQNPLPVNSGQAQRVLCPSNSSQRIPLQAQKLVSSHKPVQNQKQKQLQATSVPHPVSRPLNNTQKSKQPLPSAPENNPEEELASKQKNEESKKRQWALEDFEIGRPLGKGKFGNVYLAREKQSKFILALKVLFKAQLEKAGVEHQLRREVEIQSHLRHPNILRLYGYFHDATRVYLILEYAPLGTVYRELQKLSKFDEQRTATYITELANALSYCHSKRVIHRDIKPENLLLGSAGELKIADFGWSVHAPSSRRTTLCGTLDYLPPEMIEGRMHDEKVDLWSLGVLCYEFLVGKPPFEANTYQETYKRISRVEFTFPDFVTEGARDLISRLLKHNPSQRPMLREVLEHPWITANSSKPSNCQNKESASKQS
From the text: as §1, §2, §3, §4, §5, §6, §7, §8, §9, §10, §11, §12, §13

RSK1 domain2 = target: T11, RSK1 domain2 (Homo sapiens, UniProt Q15418); details: Lys2
T11 construct: endogenous in cells; host or cells: PANC-1 cell lysate
T11 sequence (Q15418 whole entry, the tested form may be a part): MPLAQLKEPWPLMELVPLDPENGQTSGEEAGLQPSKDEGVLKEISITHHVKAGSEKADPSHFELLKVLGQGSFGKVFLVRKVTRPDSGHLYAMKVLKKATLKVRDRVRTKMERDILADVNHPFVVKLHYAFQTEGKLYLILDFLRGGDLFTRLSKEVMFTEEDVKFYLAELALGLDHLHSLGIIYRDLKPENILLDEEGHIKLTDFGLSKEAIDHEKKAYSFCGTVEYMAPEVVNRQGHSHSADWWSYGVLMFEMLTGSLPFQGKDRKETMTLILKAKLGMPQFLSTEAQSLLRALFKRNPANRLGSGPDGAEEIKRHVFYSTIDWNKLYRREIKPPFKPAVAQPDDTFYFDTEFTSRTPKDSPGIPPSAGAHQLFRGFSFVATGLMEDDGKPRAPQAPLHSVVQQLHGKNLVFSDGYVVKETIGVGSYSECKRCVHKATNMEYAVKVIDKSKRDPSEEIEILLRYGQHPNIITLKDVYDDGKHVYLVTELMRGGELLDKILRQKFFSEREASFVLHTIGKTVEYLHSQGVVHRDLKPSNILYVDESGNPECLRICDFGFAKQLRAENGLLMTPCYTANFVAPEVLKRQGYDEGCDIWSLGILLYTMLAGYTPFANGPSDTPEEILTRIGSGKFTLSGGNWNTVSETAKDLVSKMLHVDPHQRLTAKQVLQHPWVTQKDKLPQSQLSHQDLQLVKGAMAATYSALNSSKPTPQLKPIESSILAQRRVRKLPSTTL
From the text: as §1, §2, §3, §4, §5, §6, §7, §8, §9, §10, §11, §12, §13

Q: What does the source list for `Cn1cc(-c2cnc3ccc(NC(=O)Nc4ccc(F)c(C(F)(F)F)c4)cc3n2)cn1` [51-106, 1-(4-Fluoro-3-(trifluoromethyl)phenyl)-3-(3-(1-methyl-1H-pyrazol-4-yl)quinoxalin-6-yl)urea]?
A: % Inhibition (AurA, AurB, AurC): NB (NB = No Binding (≤ 0)); inhibition at 5 µM (MSK2 domain1; Lys1, LYAMKVLR): 5.5%; inhibition at 5 µM (MSK2 domain1; Lys2, DLKLENVLLDSEGHIVLTDFGLSK): ≤ 0%; inhibition at 5 µM (MAST4): ≤ 0%; inhibition at 5 µM (ITPK1): ≤ 0%; % Inhibition (PKD3; 5 µM, Lys1, DVAIKVIDK): 27.0%; inhibition at 5 µM (PKD3; Lys1, DVAIKVIDK): 27%; inhibition at 5 µM (PKD3; Lys2, NIVHCDLKPENVLLASAEPFPQVK): ≤ 0%; inhibition at 5 µM (PKD1): ≤ 0%; % Inhibition [1]: NB (NB = No Binding (≤ 0)); inhibition at 5 µM (DLK): 5.9%; inhibition at 5 µM (MAP4K3; Lys1, NVNTGELAAIKVIK): 4.7%; inhibition at 5 µM (MAP4K3; Lys2, DIKGANILLTDNGHVK): ≤ 0%; inhibition at 5 µM (PIP4K2C; TLVIKEVSSEDIADMHSNLSNYHQYIVK): 21.8%; inhibition at 5 µM (PIP4K2C; VKELPTLKDMDFLNK): ≤ 0%; inhibition at 5 µM (CDK11): 4%; % Inhibition (CK1g1, CK1g2, CK1g3): 11.7%; % Inhibition (MST3, MST4, YSK1): NB (NB = No Binding (≤ 0)); % Inhibition (AurA; 5 µM, Lys2, DIKPENLLLGSAGELK): NB (NB = No Binding (≤ 0)); inhibition at 5 µM (AurA; Lys1, […]): ≤ 0%; inhibition at 5 µM (RSK1 domain2): 6.9%
